Measured values from ChEMBL document CHEMBL3885861, “Open TG-GATES”.

Organism: Rattus norvegicus
Experiment: Open TG-GATES - Regimen: Single
Type: toxicity, organism-based, Sprague-Dawley
Design: regimen Single, gender Male, age 6 weeks
Details: in vivo, po, 300 mg/kg, route gavage, dose level Middle; for APTT / Bas / Eos / Fbg / Hb / Ht / Lym / MCH / MCHC / MCV / Mono / Neu / PT / Plat / RBC / Ret / WBC: tissue Blood; for KIDNEY_L / KIDNEY_R / KIDNEY_TOTAL: tissue Kidney; for LIVER: tissue Liver; for A/G / ALP / ALT / AST / BUN / CRE / Ca / Cl / DBIL / GLC / IP / K / LDH / Na / PL / RALB / TBIL / TC / TG / TP / gamma-GTP: tissue Plasma

## Cc1nnc2n1-c1ccc(Cl)cc1C(c1ccccc1Cl)=NC2 [TRIAZOLAM]
3 h
  TERMINAL_BW: 190.9 g
  APTT: 16.4 s
  Bas: 0.2%
  Eos: 1%
  Fbg: 270.4 mg/dL
  Hb: 13.9 g/dL
  Ht: 42.3%
  Lym: 73.8%
  MCH: 21 pg
  MCHC: 33%
  MCV: 63.6 fL
  Mono: 3%
  Neu: 21.4%
  PT: 13.4 s
  Plat: 117 x10_4/uL
  RBC: 665.8 x10_4/ul
  Ret: 9%
  WBC: 63.2 x10_2/uL
  KIDNEY_L: 0.8 g
  KIDNEY_R: 0.8 g
  KIDNEY_TOTAL: 1.7 g
  LIVER: 8.6 g
  A/G: 0.9
  ALP: 1451.2 IU/L
  ALT: 40.2 IU/L
  AST: 71 IU/L
  BUN: 9.6 mg/dL
  CRE: 0.1 mg/dL
  Ca: 11.3 mg/dL
  Cl: 103.2 meq/L
  DBIL: 0.008 mg/dL
  GLC: 189 mg/dL
  IP: 10.7 mg/dL
  K: 4.2 meq/L
  LDH: 79.4 IU/L
  Na: 141.4 meq/L
  PL: 169.4 mg/dL
  RALB: 2.5 g/dL
  TBIL: 0.066 mg/dL
  TC: 90.4 mg/dL
  TG: 60.8 mg/dL
  TP: 5.2 g/dL
  gamma-GTP: 1.8 IU/L
6 h
  TERMINAL_BW: 191.6 g
  APTT: 17.4 s
  Bas: 0%
  Eos: 0.4%
  Fbg: 282.8 mg/dL
  Hb: 13.8 g/dL
  Ht: 42.4%
  Lym: 77.2%
  MCH: 20.5 pg
  MCHC: 32.6%
  MCV: 63 fL
  Mono: 2.4%
  Neu: 18.8%
  PT: 13.5 s
  Plat: 123.3 x10_4/uL
  RBC: 674.2 x10_4/ul
  Ret: 9.2%
  WBC: 77.5 x10_2/uL
  KIDNEY_L: 0.9 g
  KIDNEY_R: 0.9 g
  KIDNEY_TOTAL: 1.8 g
  LIVER: 8.3 g
  A/G: 0.9
  ALP: 1395 IU/L
  ALT: 35.6 IU/L
  AST: 66.6 IU/L
  BUN: 10.2 mg/dL
  CRE: 0.1 mg/dL
  Ca: 11.2 mg/dL
  Cl: 103 meq/L
  DBIL: 0.01 mg/dL
  GLC: 183.4 mg/dL
  IP: 10.9 mg/dL
  K: 4.1 meq/L
  LDH: 63.2 IU/L
  Na: 141.8 meq/L
  PL: 147.6 mg/dL
  RALB: 2.5 g/dL
  TBIL: 0.068 mg/dL
  TC: 81.2 mg/dL
  TG: 37.6 mg/dL
  TP: 5.3 g/dL
  gamma-GTP: 1 IU/L
9 h
  TERMINAL_BW: 193.6 g
  APTT: 16.7 s
  Bas: 0%
  Eos: 0.8%
  Fbg: 279.6 mg/dL
  Hb: 13.5 g/dL
  Ht: 41.2%
  Lym: 74%
  MCH: 21.4 pg
  MCHC: 32.8%
  MCV: 65.5 fL
  Mono: 2.2%
  Neu: 22%
  PT: 13.5 s
  Plat: 121.1 x10_4/uL
  RBC: 629.6 x10_4/ul
  Ret: 9.5%
  WBC: 87.2 x10_2/uL
  KIDNEY_L: 0.9 g
  KIDNEY_R: 0.8 g
  KIDNEY_TOTAL: 1.7 g
  LIVER: 7.6 g
  A/G: 0.9
  ALP: 1488.6 IU/L
  ALT: 32 IU/L
  AST: 65.2 IU/L
  BUN: 10 mg/dL
  CRE: 0.2 mg/dL
  Ca: 11 mg/dL
  Cl: 104.4 meq/L
  DBIL: 0.01 mg/dL
  GLC: 188 mg/dL
  IP: 10.6 mg/dL
  K: 4.4 meq/L
  LDH: 57.4 IU/L
  Na: 141.2 meq/L
  PL: 144.2 mg/dL
  RALB: 2.4 g/dL
  TBIL: 0.058 mg/dL
  TC: 74.2 mg/dL
  TG: 49.4 mg/dL
  TP: 5.1 g/dL
  gamma-GTP: 1.2 IU/L
24 h
  TERMINAL_BW: 207.4 g
  APTT: 28.1 s
  Bas: 0%
  Eos: 1%
  Fbg: 263.2 mg/dL
  Hb: 13.5 g/dL
  Ht: 40.8%
  Lym: 74.8%
  MCH: 21 pg
  MCHC: 33%
  MCV: 63.6 fL
  Mono: 2.6%
  Neu: 21%
  PT: 13.3 s
  Plat: 127 x10_4/uL
  RBC: 643.6 x10_4/ul
  Ret: 8%
  WBC: 94.8 x10_2/uL
  KIDNEY_L: 0.9 g
  KIDNEY_R: 0.9 g
  KIDNEY_TOTAL: 1.8 g
  LIVER: 9.2 g
  A/G: 0.9
  ALP: 1802.4 IU/L
  ALT: 44.4 IU/L
  AST: 66.2 IU/L
  BUN: 11.8 mg/dL
  CRE: 0.2 mg/dL
  Ca: 11.3 mg/dL
  Cl: 102.8 meq/L
  DBIL: 0.018 mg/dL
  GLC: 180.2 mg/dL
  IP: 9.2 mg/dL
  K: 4.5 meq/L
  LDH: 73.6 IU/L
  Na: 140.8 meq/L
  PL: 155.2 mg/dL
  RALB: 2.6 g/dL
  TBIL: 0.058 mg/dL
  TC: 77.6 mg/dL
  TG: 88 mg/dL
  TP: 5.4 g/dL
  gamma-GTP: 1 IU/L
